The text below walks through data of patent publication US12551573B2, “Compositions and methods for the targeting of PCSK9” (Scribe Therapeutics Inc., priority 2022, dated 2026).

The subject of the series is human PCSK9 locus. As to the kind of experiment: Secreted PCSK9 by ELISA (normalized to total cell count) in Huh7 cells transfected with mRNA and gRNA. In kind it is cell-based. Particulars: paired with LTRP5-ADD-ZIM3 mRNA, Huh7 cells, 6 days post-transfection; for Secreted PCSK9: normalized to total cell count; for Percent reduction in PCSK9 secretion: relative to non-targeting gRNA control; for Average percent reduction in PCSK9 secretion: averaged from the two doses. The method, then: To assess PCSK9 secretion, seeded Huh7 cells were transfected with mRNA encoding a catalytically-active CasX 676, dXR1, or LTRP5-ADD-ZIM3 and a gRNA with scaffold 316 and spacer targeting either the B2M or PCSK9 locus. Media supernatant was harvested at 6, 18, 36, and 87 days post-transfection to assess level of PCSK9 secretion by ELISA. Levels of PCSK9 secretion were normalized to total cell count. As an additional control, PCSK9 secretion was also measured in the media supernatant harvested from wells containing untreated, naïve cells.
The following three human hepatocyte cancer cell lines were used in this experiment: HepG2 cells, Hep3B cells, and Huh7 cells. ˜15,000 cells of each cell line were seeded per well; the next day, seeded cells were transfected with mRNA encoding a catalytically-active CasX 676, dXR1, or LTRP5-ADD-ZIM3 and a gRNA with scaffold 316 and spacer targeting either the B2M or PCSK9 locus (see Table 23 for specific spacers and sequences). Media supernatant was harvested at 4 days post-transfection to assess level of PCSK9 secretion by ELISA, and levels of PCSK9 secretion were normalized to total cell count and illustrated in FIGS. 11A-11C. Culturing of treated Huh7 cells continued, and media supernatant was harvested at 14 and 27 days post-transfection for measuring PCSK9 secretion by ELISA. As an additional experimental control, PCSK9 secretion was also measured in the media supernatant harvested from wells containing untreated, naïve cells.
To assess PCSK9 secretion, seeded Huh7 cells were co-transfected with mRNA encoding for LTRP5-ADD-ZIM3 and a gRNA with scaffold 316 and spacer targeting the PCSK9 locus using Lipofectamine™ 3000. Two doses of total RNA input at a 2:1 mass ratio of mRNA to gRNA were used for screening: 50 ng mRNA: 25 ng gRNA and 25 ng mRNA: 12.5 ng gRNA. Media supernatant was harvested at 6 days post-transfection to assess level of PCSK9 secretion by ELISA (Table 74). Levels of PCSK9 secretion were normalized to total cell count. As an additional control, PCSK9 secretion was also measured in the media supernatant harvested from cells transfected with mRNA encoding for mScarlet.

Take “GCCUCGCCCUCCCCAAACAG (listed as RNA, chemistry not given here) [spacer 6.152, Promoter]”: the “Average percent reduction in PCSK9 secretion” value (shortened to “Average percent reduction”) was 37.24%. Where the note is “25 ng mRNA:12.5 ng gRNA”, the “Secreted PCSK9” value came to 57.43 ng/mL and the “Percent reduction in PCSK9 secretion” value is reported as 19.39%. Further, for the setting “50 ng mRNA:25 ng gRNA”, the “Secreted PCSK9” value stood at 36.95 ng/mL and the “Percent reduction in PCSK9 secretion” value was determined as 55.09%.
Turning to “TG-06-1046 (guide UCUCUUACAUGGGGGGAAAC; listed as RNA, chemistry not given here)”, the “Average percent reduction” value is 1.48%. In addition, for the setting “25 ng mRNA:12.5 ng gRNA”, the “Secreted PCSK9” value came to 76.27 ng/mL and the “Percent reduction in PCSK9 secretion” value came to 7.05%. For the setting “50 ng mRNA:25 ng gRNA”, the “Secreted PCSK9” value turned out to be 78.9 ng/mL and the “Percent reduction in PCSK9 secretion” value is given as 4.1%.
For “GUGGGAAGGUUCGCGGGGUU (listed as RNA, chemistry not given here) [spacer 6.168, Intron 1]”, in that order: 52.62%, 50.96 ng/mL, 28.47%, 19.1 ng/mL and 76.78%.
For “UCGGCCUCCGGGUCUCCCAA (listed as RNA, chemistry not given here) [spacer 6.170, Intron 1]” the same measures were 9.79%, 72.96 ng/mL, 2.41%, 64.19 ng/mL and 21.98%.
For “GUUAAUGUUUAAUCAGAUAG (listed as RNA, chemistry not given here) [spacer 6.153, Promoter]” the same measures were 5.27%, 86.58 ng/mL, 21.52%, 73.23 ng/mL and 10.99%.
“CUCGGAAUCUGCUGUGCAUC (listed as RNA, chemistry not given here) [spacer 6.120, Promoter]”: the “Average percent reduction” value was 53.31%. Where the note is “25 ng mRNA:12.5 ng gRNA”, the “Secreted PCSK9” value stood at 47.97 ng/mL and the “Percent reduction in PCSK9 secretion” value amounted to 32.67%. Moreover, under “50 ng mRNA:25 ng gRNA”, the “Secreted PCSK9” value is reported as 21.43 ng/mL and the “Percent reduction in PCSK9 secretion” value is on record as 73.95%.
Consider “AGAAGAUUCAAUUUGCAAAG (listed as RNA, chemistry not given here) [spacer 6.132, Promoter]”, for which the “Average percent reduction” value is reported as 12.91%. Where the note is “25 ng mRNA:12.5 ng gRNA”, the “Secreted PCSK9” value was determined as 75.01 ng/mL and the “Percent reduction in PCSK9 secretion” value is listed as 5.29%. In addition, for the setting “50 ng mRNA:25 ng gRNA”, the “Secreted PCSK9” value came out at 56.68 ng/mL and the “Percent reduction in PCSK9 secretion” value was determined as 31.11%.
For “CAGUACGUUCCAGGCAUUCA (listed as RNA, chemistry not given here) [spacer 6.171, Intron 1]”, in that order: 28.88%, 55.95 ng/mL, 21.46%, 52.41 ng/mL and 36.3%.
For “AAACUUAGCCUGGACCCCCU (listed as RNA, chemistry not given here) [spacer 6.140, Promoter]” the same measures were 20.45%, 59.94 ng/mL, 15.87%, 61.68 ng/mL and 25.04%.
For “AGCCCAGUUAGGAUUUGGGA (listed as RNA, chemistry not given here) [spacer 6.149, Promoter]”, in that order: 60.23%, 38.33 ng/mL, 46.21%, 21.18 ng/mL and 74.26%.
Turning to “GGAAAGCUGAGCUUGUGCCU (listed as RNA, chemistry not given here) [spacer 6.135, Promoter]”, the “Average percent reduction” value came out at 53.12%. Where the note is “25 ng mRNA:12.5 ng gRNA”, the “Secreted PCSK9” value is 44.59 ng/mL and the “Percent reduction in PCSK9 secretion” value amounted to 37.42%. In addition, under “50 ng mRNA:25 ng gRNA”, the “Secreted PCSK9” value is listed as 25.66 ng/mL and the “Percent reduction in PCSK9 secretion” value turned out to be 68.82%.
For “TG-06-251 (guide CUCCAGGCCCUCCACCCUCC; listed as RNA, chemistry not given here)”, in that order: 46.32%, 44.62 ng/mL, 37.37%, 36.8 ng/mL and 55.28%.
On to “TG-06-351 (guide UUAUGACACAGAACUCAUGC; listed as RNA, chemistry not given here)”, for which the “Average percent reduction” value stood at 21.6%. Moreover, under “25 ng mRNA:12.5 ng gRNA”, the “Secreted PCSK9” value came out at 62.93 ng/mL and the “Percent reduction in PCSK9 secretion” value was 11.67%. Moreover, where the note is “50 ng mRNA:25 ng gRNA”, the “Secreted PCSK9” value came out at 56.34 ng/mL and the “Percent reduction in PCSK9 secretion” value was 31.52%.
For “CGGGGUUGGGAGACCCGGAG (listed as RNA, chemistry not given here) [spacer 6.169, Intron 1]”, in that order: 15.75%, 62.55 ng/mL, 12.2%, 66.39 ng/mL and 19.3%.
For “GCCAGGCCGUCCUCCUCGGA (listed as RNA, chemistry not given here) [spacer 6.4, Exon 1]”, in that order: 15.41%, 73.05 ng/mL, 2.54%, 54.83 ng/mL and 33.35%.
In the case of “GGAAGGGCUGUCGAUACUGG (listed as RNA, chemistry not given here) [spacer 6.121, Promoter]”, the “Average percent reduction” value amounted to 56.73%. Under “25 ng mRNA:12.5 ng gRNA”, the “Secreted PCSK9” value came out at 37.13 ng/mL and the “Percent reduction in PCSK9 secretion” value is 47.89%. In addition, for the setting “50 ng mRNA:25 ng gRNA”, the “Secreted PCSK9” value was 28.33 ng/mL and the “Percent reduction in PCSK9 secretion” value amounted to 65.57%.
For “GGAGCAGGGCGCGUGAAGGG (listed as RNA, chemistry not given here) [spacer 6.158, Exon 1]” the same measures were 72.03%, 31.72 ng/mL, 55.48%, 9.39 ng/mL and 88.59%.
For “UUCCACUGGCCUUAACCUGG (listed as RNA, chemistry not given here) [spacer 6.142, Promoter]”, in that order: 62.1%, 27.27 ng/mL, 61.73%, 30.87 ng/mL and 62.48%.
